Patent US20250179059A1 (The Regents of the University of California, priority 2021, published 2025)
Read-outs that look alike come from different tables or passages of the source.

Assays:
[1] = system: human SKM-1 acute myeloid leukemia cells; test: SKM-1 antiproliferation cell-based assay (ATPlite); conditions: Homo sapiens
Outline: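 Log-phase cells in RPMI 1640/15% FBS were seeded at 34722 cells/mL and exposed for 4 days to nine-concentration DMSO serial dilutions in triplicate. Viability was read as ATP luminescence (ATPlite 1step), and IC50 values came from variable-slope non-linear regression.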

[2] = biological target: T1, human BRD4 bromodomain II (Homo sapiens, UniProt O60885); test: Bromodomain binding assay (AlphaScreen), BRD4 BDII
T1 construct: human BRD4 bromodomain II [based on Genbank NM_058243, residues 349-460]; host or cells: E. coli
Outline: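 First, His6-tagged BRD4 bromodomain (BDI residues 44-170 or BDII residues 349-460) is incubated with compound for 30 min at room temperature. Next the biotinylated H4 peptide is added for 30 min, then donor and acceptor beads, with 60 min in the dark before AlphaScreen reading and IC50 fitting.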

[3] = SKM-1, 96 h, SKM-1 antiproliferation assay, 4 days, Table C2
[4] = AlphaScreen assay, Table C2, read-out: BRD4 BDII IC50
[5] = SKM-1, SKM-1 antiproliferation assay
[6] = BRD4 BDII AlphaScreen assay, read-out: BRD4 BD2 IC50

GI50 [1, 3]	IC50 [2, 4]	GI50 [1, 5]	IC50 [2, 6]	Structure (SMILES)
30 to 300 nM	1 to 10 nM			Cc1cc(-c2cc(F)cc(-c3ccnc(N4CCNCC4)c3)c2O)ccc1N1CCN(C)C1=O [Example 380, 1-(5′-fluoro-2′-hydroxy-3-methyl-3′-(2-(piperazin-1-yl)pyridin-4-yl)-[1,1′-biphenyl]-4-yl)-3-methylimidazolidin-2-one]
0.3 to 30 nM	0.01 to 1 nM			Cn1ccn(-c2ccc(-c3cc(F)cc(-c4ccnc(N5C[C@@H](O)[C@H](O)C5)c4)c3O)cc2Cl)c1=O [Example 726, 1-(3-chloro-3′-(2-((3R,4R)-3,4-dihydroxypyrrolidin-1-yl)pyridin-4-yl)-5′-fluoro-2′-hydroxy-[1,1′-biphenyl]-4-yl)-3-methyl-1H-imidazol-2(3H)-one]
30 to 300 nM	0.01 to 1 nM			COc1ncc(-c2cc(F)cc(-c3ccc(-n4ccn(C)c4=O)c(Cl)c3)c2O)cc1N1CC(O)(CO)C1 [Example 838, 1-(3-chloro-5′-fluoro-2′-hydroxy-3′-(5-(3-hydroxy-3-(hydroxymethyl)azetidin-1-yl)-6-methoxypyridin-3-yl)-[1,1′-biphenyl]-4-yl)-3-methyl-1H-imidazol-2(3H)-one]
≥ 3000 nM	> 100 nM			CC(=O)Nc1ccc(-c2cccc(-c3cc(C#N)nc(N4CCNCC4)c3)c2O)cc1F [Example 313, N-(3′-(2-cyano-6-(piperazin-1-yl)pyridin-4-yl)-3-fluoro-2′-hydroxy-[1,1′-biphenyl]-4-yl)acetamide]
30 to 300 nM	1 to 10 nM			CN1CCN(c2ccc(-c3cc(F)cc(-c4cnc(C#N)c(N5CCNCC5)c4)c3O)cc2Cl)C1=O [Example 357, 5-(3′-chloro-5-fluoro-2-hydroxy-4′-(3-methyl-2-oxoimidazolidin-1-yl)-[1,1′-biphenyl]-3-yl)-3-(piperazin-1-yl)picolinonitrile]
30 to 300 nM	1 to 10 nM			C[C@@H]1CN(c2cc(-c3cccc(-c4ccc(N5CCN(C)C5=O)c(Cl)c4)c3O)ccn2)CCN1 [Example 294, (R)-1-(3-chloro-2′-hydroxy-3′-(2-(3-methylpiperazin-1-yl)pyridin-4-yl)-[1,1′-biphenyl]-4-yl)-3-methylimidazolidin-2-one]
0.3 to 30 nM	0.01 to 1 nM			Cn1ccn(-c2ccc(-c3cc(F)cc(-c4cncc(N5CCC[C@H](N)C5)c4)c3O)cc2Cl)c1=O [Example 461, (S)-1-(3′-(5-(3-aminopiperidin-1-yl)pyridin-3-yl)-3-chloro-5′-fluoro-2′-hydroxy-[1,1′-biphenyl]-4-yl)-3-methyl-1,3-dihydro-2H-imidazol-2-one]
0.3 to 30 nM	0.01 to 1 nM			CN1CC2CN(c3cc(-c4cc(F)cc(-c5ccc(-n6ccn(C)c6=O)c(Cl)c5)c4O)ccn3)CC21 (stereo not drawn) [Example 659, 1-(3-chloro-5′-fluoro-2′-hydroxy-3′-(2-(6-methyl-3,6-diazabicyclo[3.2.0]heptan-3-yl)pyridin-4-yl)-[1,1′-biphenyl]-4-yl)-3-methyl-1H-imidazol-2(3H)-one]
30 to 300 nM	1 to 10 nM			CC(=O)Nc1ccc(-c2cccc(-c3cncc(N4CCN[C@H](C)C4)c3)c2O)cc1F [Example 258]
0.3 to 30 nM	1 to 10 nM			C[C@@H]1CN(c2cc(-c3cc(F)cc(-c4ccc(-n5ccn(C)c5=O)c(F)c4)c3O)ccn2)CCN1 [Example 534, (R)-1-(3,5′-difluoro-2′-hydroxy-3′-(2-(3-methylpiperazin-1-yl)pyridin-4-yl)-[1,1′-biphenyl]-4-yl)-3-methyl-1H-imidazol-2(3H)-one]
		0.3 to 30 nM	1 to 10 nM	Cc1cc(-c2ccc(-n3ccn(C)c3=O)c(F)c2)c(O)c(-c2cnc(C)c(N3CCN(C(C)(C)C)CC3)c2)n1 [Example 1001, 1-(4-(5′-(4-(tert-butyl)piperazin-1-yl)-3-hydroxy-6,6′-dimethyl-[2,3′-bipyridin]-4-yl)-2-fluorophenyl)-3-methyl-1H-imidazol-2(3H)-one]
30 to 300 nM	1 to 10 nM			CN1CCN(c2ccc(-c3cccc(-c4ccnc(N5CCCC(N)C5)c4)c3O)cc2Cl)C1=O (stereo not drawn) [Example 301, 1-(3′-(2-(3-aminopiperidin-1-yl)pyridin-4-yl)-3-chloro-2′-hydroxy-[1,1′-biphenyl]-4-yl)-3-methylimidazolidin-2-one]
0.3 to 30 nM	0.01 to 1 nM			Cn1ccn(-c2ccc(-c3cc(F)cc(-c4ccnc(N5CCN(C(C)(C)C)CC5)c4)c3O)cc2Cl)c1=O [Example 614, 1-(3′-(2-(4-(tert-butyl)piperazin-1-yl)pyridin-4-yl)-3-chloro-5′-fluoro-2′-hydroxy-[1,1′-biphenyl]-4-yl)-3-methyl-1H-imidazol-2(3H)-one]
		0.3 to 30 nM	1 to 10 nM	Cn1ccn(-c2ccc(-c3ccnc(-c4cccc(N5CCN(C(C)(C)C)CC5)c4)c3N)cc2Cl)c1=O [Example 976, 1-(4-(3-Amino-2-(3-(4-(tert-butyl)piperazin-1-yl)phenyl)pyridin-4-yl)-2-chlorophenyl)-3-methyl-1H-imidazol-2(3H)-one]
		0.3 to 30 nM	1 to 10 nM	Cc1ncc(-c2cc(F)cc(-c3ccc(-n4ccn(C)c4=O)c(Cl)c3)c2O)cc1N1CCN(C2CCC2)CC1 [Example 883]
0.3 to 30 nM	0.01 to 1 nM			C[C@@H]1CN(c2cc(-c3cc(F)cc(-c4ccc(-n5ccn(C)c5=O)c(Cl)c4)c3O)ccn2)CCN1C [Example 493, (R)-1-(3-chloro-3′-(2-(3,4-dimethylpiperazin-1-yl)pyridin-4-yl)-5′-fluoro-2′-hydroxy-[1,1′-biphenyl]-4-yl)-3-methyl-1H-imidazol-2(3H)-one]
0.3 to 30 nM	0.01 to 1 nM			[2H]C([2H])([2H])n1ccn(-c2ccc(-c3cc(F)cc(-c4ccnc(N5CC[C@H](NC)C5)c4)c3O)cc2Cl)c1=O [Example 466, (S)-1-(3-chloro-5′-fluoro-2′-hydroxy-3′-(2-(3-(methylamino)pyrrolidin-1-yl)pyridin-4-yl)-[1,1′-biphenyl]-4-yl)-3-(deuteromethyl)-1H-imidazol-2(3H)-one]
		300 to 3000 nM	> 100 nM	Cc1nc(-c2cc(F)cc(-c3cccc(N4CCN(C(C)(C)C)CC4)c3)c2O)ccc1-n1ccn(C)c1=O [Example 936, 1-(6-(3′-(4-(tert-butyl)piperazin-1-yl)-5-fluoro-2-hydroxy-[1,1′-biphenyl]-3-yl)-2-methylpyridin-3-yl)-3-methyl-1H-imidazol-2(3H)-one]
		30 to 300 nM	1 to 10 nM	Cc1cc(-c2ccc(-n3ccn(C)c3=O)c(Cl)c2)c(O)c(-c2cnnc(N3CCN(C(C)(C)C)CC3)c2)n1 [Example 1017, 1-(4-(2-(6-(4-(tert-butyl)piperazin-1-yl)pyridazin-4-yl)-3-hydroxy-6-methylpyridin-4-yl)-2-chlorophenyl)-3-methyl-1H-imidazol-2(3H)-one]
30 to 300 nM	1 to 10 nM			Cc1ccc(-c2cc(F)cc(-c3ccc(-n4ccn(C)c4=O)c(Cl)c3)c2O)cc1C(N)=O [Example 766]

Structure (SMILES)	GI50 [1, 3]	IC50 [2, 4]	GI50 [1, 5]	IC50 [2, 6]
CC(C)COc1cc(-c2cc(F)cc(-c3cccc(N4CCN(C(C)(C)C)CC4)c3)c2O)cc(Cl)c1-n1ccn(C)c1=O [Example 924, 1-(3″-(4-(tert-Butyl)piperazin-1-yl)-3-chloro-5′-fluoro-2′-hydroxy-5-isobutoxy-[1,1′:3′,1″-terphenyl]-4-yl)-3-methyl-1H-imidazol-2(3H)-one]			30 to 300 nM	10 to 100 nM
